Measured values taken from patent US7186817B2, “Polynucleotides encoding phytase polypeptides” (Forskningscenter Riso, priority 2000, dated 2007).

B1: wheat bran phytase: phytase purified from wheat bran according to the invention (SEQ ID NO: 7) (protein, listed as Triticum aestivum)
chain: MWMWRGSLPLLLLAAAVAAAAEPASTLEGPSRPVTVPLREDRGHAVDLPDTDPRVQRRVTGWAPEQIAVALSAAPTSAWVSWITGDFQMGGAVKPLDPGTVGSVVRYGLAADSLVREATGDALVYSQLYPFEGLQNYTSGIIHHVRLQGLEPGTKYYYQCGDPAIPGAMSAVHAFRTMPAVGPRSYPGRIAVVGDLGLTYNTTSTVDHMASNRPDLVLLVGDVCYANMYLTNGTGADCYSCAFGKSTPIHETYQPRWDYWGRYMEAVTSGTPMMVVEGNHEIEEQIGNKTFAAYRSRFAFPSTESGSFSPFYYSFDAGGIHFLMLGAYADYGRSGEQYRWLEKDLAKVDRSVTPWLVAGWHAPWYTTYKAHYREVECMRVAMEELLYSHGLDIAFTGHVHAYERSNRVFNYTLDPCGAVHISVGDGGNREKMATTHADEPGHCPDPRPKPNAFIGGFCAFNFTSGPAAGRFCWDRQPDYSAYRESSFGHGILEVKNETHALWRWHRNQDMYGSAGDEIYIVREPHRCLHKHNWTRPAHGP

Legend:
soybean phytase = conditions: cited from earlier work
[1] = system: phytase activity of fraction F1; conditions: fraction F1, pH optimum 5.6; cited from earlier work
[2] = system: earlier described phytase activity (wheat bran); conditions: activity with optimum at about pH 5.0; cited from earlier work
[3] = Determination of the isoelectric point (non-denaturing isoelectric focusing); format: physicochemical; conditions: visualised with 1-naphtylphosphate and Farst Garnet GBC
Protocol: FIG. 5: depicts the isoelectric focusing of the purified wheat bran phytase. A double band at pH 7.4 is visible after incubation with 1-naphtylphosphate and Farst Garnet GBC.
Proteins were focused at 11° C. for a total of 2.5 kVh in non-denaturing isoelectric-focusing polyacrylamid gels (IEF)(Ampholine PAGplate pH 3.5–9.5 (Pharmacia)). An IEF calibration kit (Pharmacia) was applied to determine the pH-gradient across the gel. The IEF markers were visualised by Coomassie staining according to the recommendations of the manufacturer. The presence of acid phosphatase was identified by incubation of the gel at 37° C. in 100 ml 0.05M citrate, pH 4.5 with 50 mg Na-1-naphtyl phosphate (Merck 6815), 25 mg Farst Garnet GBC (Sigma F-8761) and 0.5 ml 10% MgCl.

| Molecule | enzyme active (soybean phytase; 0.5 μM phosphate) [%] | Ki (soybean phytase; read-out: apparent Ki, product inhibition by phosphate) [µM] | inhibition of activity by phosphate [1] | inhibition of activity by phosphate [2] | isoelectric focusing, double band at pH [3] [pH] |
| --- | --- | --- | --- | --- | --- |
| phosphate | 67 | 18 | inhibited | not inhibited at all |  |
| B1 |  |  |  |  | 7.4 |
